pIC50: −log10 of the molar value.
What was measured:
[1] = molecular target: PAS domain-containing serine/threonine-protein kinase (Homo sapiens) (UniProt Q96RG2); assay: Inhibition of recombinant human PASK (995 to end residues) assessed as residual activity at 1 uM using KKLNRTLSFAEPG as substrate measured after 40 mins in presence of [gamma33P]ATP by scintillation counting method relative to control
GSK-3beta (H350L mutant) = GSK-3beta (H350L mutant) (Homo sapiens, UniProt P49841, H350L); assay: Inhibition of human GSK-3beta H350L mutant (2 to end residues) assessed as residual activity at 1 uM using phospho GS2 peptide as substrate after 40 mins by [gamma-33ATP] radiometric assay relative to control; conditions: human GSK-3beta H350L mutant enzyme (residues 2 to end), probe phospho GS2 peptide, read-out: Activity
GSK-3beta (H350L mutant), sequence (P49841 whole entry, looked up, stated change not applied, the tested form may be a part): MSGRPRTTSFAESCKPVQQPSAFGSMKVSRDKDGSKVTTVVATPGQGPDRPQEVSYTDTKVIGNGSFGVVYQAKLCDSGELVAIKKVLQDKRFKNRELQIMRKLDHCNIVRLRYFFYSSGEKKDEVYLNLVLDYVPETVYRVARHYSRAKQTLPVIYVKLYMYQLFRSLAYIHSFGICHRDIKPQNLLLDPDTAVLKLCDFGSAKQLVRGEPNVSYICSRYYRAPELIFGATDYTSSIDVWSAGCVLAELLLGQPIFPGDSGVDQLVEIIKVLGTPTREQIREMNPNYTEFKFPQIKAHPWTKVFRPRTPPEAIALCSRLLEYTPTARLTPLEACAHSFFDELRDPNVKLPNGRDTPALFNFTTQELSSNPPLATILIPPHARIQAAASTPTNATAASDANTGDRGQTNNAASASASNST

Homo sapiens = organism: Homo sapiens; assay: Inhibition of recombinant full length human PKBalpha S478G mutant assessed as residual activity at 1 uM using GRPRTSSFAEGKK as substrate measured after 40 mins in presence of [gamma33P]ATP by scintillation counting method relative to control
[2] = molecular target: Dual specificity tyrosine-phosphorylation-regulated kinase 2 (Homo sapiens) (UniProt Q92630); assay: Inhibition of recombinant human DYRK2 assessed as residual activity at 1 uM using casein as substrate at 40 mins in presence of [gamma-33ATP] by scintillation counting based radiometry assay relative to control
[3] = molecular target: Platelet-derived growth factor receptor beta (Homo sapiens) (UniProt P09619); assay: Inhibition of human PDGFRbeta (557 to end residues) assessed as residual activity at 1 uM using poly(Glu, Tyr) 4:1 as substrate measured after 40 mins in presence of [gamma33P]ATP by scintillation counting method relative to control
Platelet-derived growth factor receptor beta (Homo sapiens), sequence (P09619 whole entry, the tested form may be a part): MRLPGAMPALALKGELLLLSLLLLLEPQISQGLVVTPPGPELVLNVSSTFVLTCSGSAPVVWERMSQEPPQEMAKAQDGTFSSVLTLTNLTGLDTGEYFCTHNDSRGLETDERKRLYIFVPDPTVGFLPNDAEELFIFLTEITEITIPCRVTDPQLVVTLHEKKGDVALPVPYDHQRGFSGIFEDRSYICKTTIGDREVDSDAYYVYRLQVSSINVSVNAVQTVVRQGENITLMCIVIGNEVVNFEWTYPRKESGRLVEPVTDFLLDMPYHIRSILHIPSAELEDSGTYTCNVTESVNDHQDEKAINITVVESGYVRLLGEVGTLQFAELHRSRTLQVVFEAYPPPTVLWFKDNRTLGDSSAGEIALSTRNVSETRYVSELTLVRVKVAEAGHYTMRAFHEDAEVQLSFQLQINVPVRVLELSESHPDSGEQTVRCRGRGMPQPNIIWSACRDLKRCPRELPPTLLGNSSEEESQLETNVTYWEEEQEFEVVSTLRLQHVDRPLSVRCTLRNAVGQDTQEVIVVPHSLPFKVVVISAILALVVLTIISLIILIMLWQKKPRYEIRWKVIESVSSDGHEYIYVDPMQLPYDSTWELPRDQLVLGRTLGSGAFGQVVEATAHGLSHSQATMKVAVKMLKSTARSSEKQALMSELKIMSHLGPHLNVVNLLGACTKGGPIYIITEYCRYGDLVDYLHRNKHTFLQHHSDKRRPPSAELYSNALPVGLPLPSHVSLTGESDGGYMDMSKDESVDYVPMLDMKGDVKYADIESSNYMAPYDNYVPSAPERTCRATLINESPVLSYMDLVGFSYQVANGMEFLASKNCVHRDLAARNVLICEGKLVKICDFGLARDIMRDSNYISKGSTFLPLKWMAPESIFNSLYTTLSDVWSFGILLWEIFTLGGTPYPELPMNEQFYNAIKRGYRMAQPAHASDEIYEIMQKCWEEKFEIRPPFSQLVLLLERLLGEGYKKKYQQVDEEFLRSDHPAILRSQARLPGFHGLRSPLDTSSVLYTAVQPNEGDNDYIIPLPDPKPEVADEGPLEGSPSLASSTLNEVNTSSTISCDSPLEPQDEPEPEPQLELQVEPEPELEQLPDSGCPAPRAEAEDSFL

[4] = molecular target: Tyrosine-protein kinase HCK (Homo sapiens) (UniProt P08631); assay: Inhibition of human HCK (230 to 497 residues) assessed as residual activity at 1 uM using KVEKIGEGTYGVVYK as substrate after 40 mins by [gamma-33ATP] radiometric assay relative to control
Tyrosine-protein kinase HCK (Homo sapiens), sequence (P08631 2-526 limits assumed): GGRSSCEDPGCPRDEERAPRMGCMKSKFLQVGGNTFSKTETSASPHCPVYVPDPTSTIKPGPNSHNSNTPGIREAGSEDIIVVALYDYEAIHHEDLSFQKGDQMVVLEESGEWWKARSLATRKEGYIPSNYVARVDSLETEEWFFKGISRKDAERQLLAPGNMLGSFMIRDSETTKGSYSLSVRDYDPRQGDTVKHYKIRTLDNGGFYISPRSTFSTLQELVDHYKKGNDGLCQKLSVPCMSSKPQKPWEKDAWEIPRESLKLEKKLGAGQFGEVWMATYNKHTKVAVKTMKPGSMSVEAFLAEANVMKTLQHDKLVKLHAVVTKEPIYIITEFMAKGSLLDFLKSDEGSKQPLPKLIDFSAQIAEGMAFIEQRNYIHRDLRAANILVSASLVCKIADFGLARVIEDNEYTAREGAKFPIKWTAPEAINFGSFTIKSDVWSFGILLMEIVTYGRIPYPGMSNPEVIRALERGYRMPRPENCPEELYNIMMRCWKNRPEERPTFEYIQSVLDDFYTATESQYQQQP

[5] = molecular target: Receptor-type tyrosine-protein kinase FLT3 (Homo sapiens) (UniProt P36888); assay: Inhibition of recombinant human FLT3 (564 to end residues) assessed as residual activity at 1 uM using EAIYAAPFAKKK as substrate at 40 mins in presence of [gamma-33ATP] by scintillation counting based radiometry assay relative to control
[6] = molecular target: MAP/microtubule affinity-regulating kinase 4 (Homo sapiens) (UniProt Q96L34); assay: Inhibition of recombinant full length human MARK4 assessed as residual activity at 1 uM using KKKVSRSGLYRSPSMPENLNRPR as substrate incubated for 40 mins in presence of [gamma-33ATP by scintillation counting based radiometry assay relative to control
MAP/microtubule affinity-regulating kinase 4 (Homo sapiens), sequence (Q96L34 whole entry): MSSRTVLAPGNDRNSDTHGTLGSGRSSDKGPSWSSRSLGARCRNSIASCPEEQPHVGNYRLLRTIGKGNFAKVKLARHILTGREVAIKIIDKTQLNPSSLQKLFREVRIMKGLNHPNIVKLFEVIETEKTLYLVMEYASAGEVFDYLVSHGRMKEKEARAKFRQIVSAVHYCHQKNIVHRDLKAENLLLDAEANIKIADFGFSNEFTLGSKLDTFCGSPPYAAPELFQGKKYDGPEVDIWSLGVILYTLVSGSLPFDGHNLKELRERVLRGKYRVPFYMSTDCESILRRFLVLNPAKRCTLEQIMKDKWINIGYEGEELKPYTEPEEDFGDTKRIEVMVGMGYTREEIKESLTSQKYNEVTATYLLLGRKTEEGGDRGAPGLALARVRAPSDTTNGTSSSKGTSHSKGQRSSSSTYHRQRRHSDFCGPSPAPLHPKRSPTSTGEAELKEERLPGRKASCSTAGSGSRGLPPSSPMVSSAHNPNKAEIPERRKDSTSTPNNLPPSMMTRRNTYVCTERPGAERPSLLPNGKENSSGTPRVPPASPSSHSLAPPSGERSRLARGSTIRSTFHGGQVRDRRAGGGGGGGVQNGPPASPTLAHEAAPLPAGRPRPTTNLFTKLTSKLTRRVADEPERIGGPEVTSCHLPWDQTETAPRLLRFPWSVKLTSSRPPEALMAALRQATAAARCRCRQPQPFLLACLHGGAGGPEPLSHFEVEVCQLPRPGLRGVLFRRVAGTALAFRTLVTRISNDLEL

[7] = tested on: Epidermal growth factor receptor (Homo sapiens), P00533 [L858R,T790M]; assay: Inhibition of recombinant human EGFR T790M/L858R mutant (696 to end residues) assessed as residual activity at 1 uM using poly(Glu, Tyr) 4:1 as substrate at 40 mins in presence of [gamma-33ATP] by scintillation counting based radiometry assay relative to control
[8] = molecular target: Calcium/calmodulin-dependent protein kinase type 1G (Homo sapiens) (UniProt Q96NX5); assay: Inhibition of recombinant full length human CaMKIgamma assessed as residual activity at 1 uM using KKLRRTLSFAEPG as substrate incubated for 40 mins in presence of [gamma-33ATP] by scintillation counting based radiometry assay relative to control
[9] = molecular target: CDK9/cyclin T1 (Homo sapiens) (UniProt O60563+P50750); assay: Inhibition of recombinant full length human CDK9/cyclinT1 assessed as residual activity at 1 uM using KTFCGTPEYLAPEVRREPRILSEEEQEMFRDFDYIADWC as substrate incubated for 40 mins in presence of [gamma-33ATP] by scintillation counting based radiometry assay relative to control; format: protein-complex assay
[10] = molecular target: Insulin-like growth factor 1 receptor (Homo sapiens) (UniProt P08069); assay: Inhibition of human activated IGF1R (959 to end residues) assessed as residual activity at 1 uM using KKKSPGEYVNIEFG as substrate after 40 mins by [gamma-33ATP] radiometric assay relative to control
[11] = molecular target: Ephrin type-A receptor 2 (Homo sapiens) (UniProt P29317); assay: Inhibition of recombinant human EphA2 (596 to 900 residues) assessed as residual activity at 1 uM using poly(Glu, Tyr) 4:1 as substrate at 40 mins in presence of [gamma-33ATP] by scintillation counting based radiometry assay relative to control
Ephrin type-A receptor 2 (Homo sapiens), sequence (P29317 whole entry, the tested form may be a part): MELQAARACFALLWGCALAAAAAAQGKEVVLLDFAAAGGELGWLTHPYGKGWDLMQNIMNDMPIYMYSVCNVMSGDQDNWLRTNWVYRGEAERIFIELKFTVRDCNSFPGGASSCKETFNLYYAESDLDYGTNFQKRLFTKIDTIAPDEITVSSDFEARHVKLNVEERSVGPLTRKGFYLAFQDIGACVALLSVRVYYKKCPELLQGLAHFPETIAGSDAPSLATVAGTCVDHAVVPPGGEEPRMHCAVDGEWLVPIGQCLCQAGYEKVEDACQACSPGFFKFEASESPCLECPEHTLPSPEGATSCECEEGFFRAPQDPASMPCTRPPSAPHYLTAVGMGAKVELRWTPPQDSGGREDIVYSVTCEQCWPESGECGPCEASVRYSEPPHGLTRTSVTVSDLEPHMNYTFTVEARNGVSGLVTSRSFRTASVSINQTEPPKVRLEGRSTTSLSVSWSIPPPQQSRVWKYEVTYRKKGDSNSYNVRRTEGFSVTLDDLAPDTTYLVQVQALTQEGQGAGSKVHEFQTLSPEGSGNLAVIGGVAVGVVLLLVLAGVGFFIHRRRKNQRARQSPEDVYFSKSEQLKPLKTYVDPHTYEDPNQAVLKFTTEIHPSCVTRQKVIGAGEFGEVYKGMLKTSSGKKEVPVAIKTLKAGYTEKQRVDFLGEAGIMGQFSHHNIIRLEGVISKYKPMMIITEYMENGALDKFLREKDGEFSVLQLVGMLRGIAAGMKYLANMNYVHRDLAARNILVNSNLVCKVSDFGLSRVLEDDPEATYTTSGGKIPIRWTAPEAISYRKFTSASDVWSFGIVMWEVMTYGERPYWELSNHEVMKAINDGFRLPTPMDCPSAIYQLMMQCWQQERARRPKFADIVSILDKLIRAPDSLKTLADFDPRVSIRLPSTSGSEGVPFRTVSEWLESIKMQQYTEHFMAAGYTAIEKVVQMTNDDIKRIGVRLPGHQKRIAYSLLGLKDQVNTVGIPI

[12] = tested on: Serine/threonine-protein kinase D1 (Homo sapiens), Q15139 [UNDEFINED MUTATION]; assay: Inhibition of recombinant full-length human PKCmu R135A mutant assessed as residual activity at 1 uM using KKLNRTLSVA as substrate incubated for 40 mins in presence of [gamma33P]ATP by scintillation counting based radiometry assay relative to control
[13] = molecular target: Serine/threonine-protein kinase 24 (Homo sapiens) (UniProt Q9Y6E0); assay: Inhibition of recombinant human MST3 (1 to 304 residues) assessed as residual activity at 1 uM using ERMRPRKRQGSVRRRV as substrate measured after 40 mins in presence of [gamma33P]ATP by scintillation counting method relative to control
Serine/threonine-protein kinase 24 (Homo sapiens), sequence (Q9Y6E0 whole entry, looked up, the tested form may be a part): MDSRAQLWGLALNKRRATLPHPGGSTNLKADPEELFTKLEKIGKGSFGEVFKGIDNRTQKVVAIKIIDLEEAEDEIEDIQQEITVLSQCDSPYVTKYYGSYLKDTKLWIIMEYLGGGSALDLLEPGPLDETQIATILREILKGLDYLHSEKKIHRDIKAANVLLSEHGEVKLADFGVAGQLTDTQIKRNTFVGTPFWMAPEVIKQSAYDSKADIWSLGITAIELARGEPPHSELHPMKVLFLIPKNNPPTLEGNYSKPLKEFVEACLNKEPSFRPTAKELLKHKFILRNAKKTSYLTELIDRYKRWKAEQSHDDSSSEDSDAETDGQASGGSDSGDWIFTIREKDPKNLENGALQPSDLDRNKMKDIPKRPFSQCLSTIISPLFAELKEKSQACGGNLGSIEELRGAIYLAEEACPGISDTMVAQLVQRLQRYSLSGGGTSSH

[14] = molecular target: Activin receptor type-1B (Homo sapiens) (UniProt P36896); assay: Inhibition of human ALK4 (150 to end residues) assessed as residual activity at 1 uM using casein as substrate incubated for 40 mins in presence of [gamma-33ATP] by scintillation counting based radiometry assay relative to control
Activin receptor type-1B (Homo sapiens), sequence (P36896 whole entry): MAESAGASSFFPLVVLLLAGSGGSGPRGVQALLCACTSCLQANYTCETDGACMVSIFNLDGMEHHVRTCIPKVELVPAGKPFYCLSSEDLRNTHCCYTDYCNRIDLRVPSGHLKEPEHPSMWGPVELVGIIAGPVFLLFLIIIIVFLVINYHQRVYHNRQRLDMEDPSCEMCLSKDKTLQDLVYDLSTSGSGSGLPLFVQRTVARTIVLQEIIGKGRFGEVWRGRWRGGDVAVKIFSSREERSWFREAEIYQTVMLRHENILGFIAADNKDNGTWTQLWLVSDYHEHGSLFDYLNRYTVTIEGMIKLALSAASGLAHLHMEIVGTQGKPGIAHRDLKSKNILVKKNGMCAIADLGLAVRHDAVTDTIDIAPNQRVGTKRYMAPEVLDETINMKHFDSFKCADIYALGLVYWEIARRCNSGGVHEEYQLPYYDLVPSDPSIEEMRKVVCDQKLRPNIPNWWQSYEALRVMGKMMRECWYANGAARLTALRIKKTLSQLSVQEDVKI

[15] = molecular target: Glycogen synthase kinase-3 beta (Homo sapiens, UniProt P49841, H350L); assay: Inhibition of human GSK-3beta H350L mutant (2 to end residues) at 10 uM using phospho GS2 peptide as substrate after 40 mins by [gamma-33ATP] radiometric assay
Glycogen synthase kinase-3 beta, sequence (P49841 whole entry, looked up, stated change not applied): as the sequence (P49841 whole entry, looked up, stated change not applied, the tested form may be a part) above

SMILES	Activity [1] [%]	activity at 40 min, 1 µM (GSK-3beta (H350L mutant)) [%]	Activity (Homo sapiens) [%]	Activity [2] [%]	Activity [3] [%]	Activity [4] [%]	Activity [5] [%]	Activity [6] [%]	Activity [7] [%]	Activity [8] [%]	Activity [9] [%]	Activity [10] [%]	Activity [11] [%]	Activity [12] [%]	Activity [13] [%]	Activity [14] [%]	pIC50 [15]
C=CCOC(=O)c1cc(-c2ccc(/C=C3/NC(=S)NC3=O)o2)ccc1Cl	97	31	97	91	108	73	108	113	97	92	86	96	92	99	106	105	6.66
N=C1NC(=O)/C(=C\c2ccc(-c3cccc([N+](=O)[O-])c3)o2)S1	92	17	97	82	103	72	90	92	89	99	74	99	100	97	105	109	6.96

Source: ChEMBL document CHEMBL4334438, “Discovery of novel glycogen synthase kinase-3α inhibitors: Structure-based virtual screening, preliminary SAR and biological evaluation for treatment of acute myeloid leukemia” (Eur J Med Chem, 2019)
